Assays:
Assay in all cases: kinase panel, […] compound, […] ATP
Assay type in all cases: biochemical
Conditions in all cases: read-out: % inhibition at 1 μM
[1] = target: T1, GCK (Homo sapiens, UniProt Q12851)
T1 sequence (Q12851 1-820): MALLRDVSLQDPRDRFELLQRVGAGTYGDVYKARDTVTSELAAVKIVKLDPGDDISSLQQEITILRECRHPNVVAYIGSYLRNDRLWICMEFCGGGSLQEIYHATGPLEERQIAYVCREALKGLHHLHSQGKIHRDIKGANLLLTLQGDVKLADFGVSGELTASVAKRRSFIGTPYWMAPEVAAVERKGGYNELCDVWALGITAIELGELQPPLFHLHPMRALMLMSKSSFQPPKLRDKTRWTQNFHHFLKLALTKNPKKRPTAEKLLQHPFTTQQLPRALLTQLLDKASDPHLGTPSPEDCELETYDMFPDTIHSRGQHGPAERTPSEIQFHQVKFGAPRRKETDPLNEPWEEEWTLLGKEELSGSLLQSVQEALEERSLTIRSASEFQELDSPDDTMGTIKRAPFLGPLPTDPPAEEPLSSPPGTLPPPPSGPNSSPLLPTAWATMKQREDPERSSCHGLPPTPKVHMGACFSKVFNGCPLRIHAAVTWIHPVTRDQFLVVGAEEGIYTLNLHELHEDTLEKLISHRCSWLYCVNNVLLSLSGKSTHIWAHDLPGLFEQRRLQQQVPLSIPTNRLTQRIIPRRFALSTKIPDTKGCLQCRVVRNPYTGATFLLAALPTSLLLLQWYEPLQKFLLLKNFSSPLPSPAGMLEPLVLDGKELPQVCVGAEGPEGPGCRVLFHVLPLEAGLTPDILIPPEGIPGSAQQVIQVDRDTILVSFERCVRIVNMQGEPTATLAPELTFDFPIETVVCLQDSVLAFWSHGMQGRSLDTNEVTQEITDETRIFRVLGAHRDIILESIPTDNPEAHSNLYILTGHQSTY

[2] = target: MARK3 (Homo sapiens, UniProt P27448)
Chain of MARK3 (P27448 whole entry): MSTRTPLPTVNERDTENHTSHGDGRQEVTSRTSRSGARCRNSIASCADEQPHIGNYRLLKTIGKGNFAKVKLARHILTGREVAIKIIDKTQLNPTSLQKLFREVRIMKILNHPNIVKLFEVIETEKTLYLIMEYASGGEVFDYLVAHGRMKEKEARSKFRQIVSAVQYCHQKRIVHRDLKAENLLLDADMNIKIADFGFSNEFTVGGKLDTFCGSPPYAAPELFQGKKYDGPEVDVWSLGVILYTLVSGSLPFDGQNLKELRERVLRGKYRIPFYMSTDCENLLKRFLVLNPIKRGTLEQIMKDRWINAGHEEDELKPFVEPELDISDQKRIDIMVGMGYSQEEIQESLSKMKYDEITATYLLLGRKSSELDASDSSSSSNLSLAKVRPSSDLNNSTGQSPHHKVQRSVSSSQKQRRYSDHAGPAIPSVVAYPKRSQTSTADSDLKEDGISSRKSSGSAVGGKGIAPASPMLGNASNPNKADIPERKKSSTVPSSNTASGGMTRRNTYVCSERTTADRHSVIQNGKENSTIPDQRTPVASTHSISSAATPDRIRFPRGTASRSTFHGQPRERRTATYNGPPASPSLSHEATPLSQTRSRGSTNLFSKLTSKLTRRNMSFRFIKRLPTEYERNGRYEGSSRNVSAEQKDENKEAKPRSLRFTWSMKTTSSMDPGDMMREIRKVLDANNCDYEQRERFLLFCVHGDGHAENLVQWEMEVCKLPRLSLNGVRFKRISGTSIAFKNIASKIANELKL

[3] = target: MLK1 (Homo sapiens, UniProt P80192)
Chain of MLK1 (P80192 whole entry): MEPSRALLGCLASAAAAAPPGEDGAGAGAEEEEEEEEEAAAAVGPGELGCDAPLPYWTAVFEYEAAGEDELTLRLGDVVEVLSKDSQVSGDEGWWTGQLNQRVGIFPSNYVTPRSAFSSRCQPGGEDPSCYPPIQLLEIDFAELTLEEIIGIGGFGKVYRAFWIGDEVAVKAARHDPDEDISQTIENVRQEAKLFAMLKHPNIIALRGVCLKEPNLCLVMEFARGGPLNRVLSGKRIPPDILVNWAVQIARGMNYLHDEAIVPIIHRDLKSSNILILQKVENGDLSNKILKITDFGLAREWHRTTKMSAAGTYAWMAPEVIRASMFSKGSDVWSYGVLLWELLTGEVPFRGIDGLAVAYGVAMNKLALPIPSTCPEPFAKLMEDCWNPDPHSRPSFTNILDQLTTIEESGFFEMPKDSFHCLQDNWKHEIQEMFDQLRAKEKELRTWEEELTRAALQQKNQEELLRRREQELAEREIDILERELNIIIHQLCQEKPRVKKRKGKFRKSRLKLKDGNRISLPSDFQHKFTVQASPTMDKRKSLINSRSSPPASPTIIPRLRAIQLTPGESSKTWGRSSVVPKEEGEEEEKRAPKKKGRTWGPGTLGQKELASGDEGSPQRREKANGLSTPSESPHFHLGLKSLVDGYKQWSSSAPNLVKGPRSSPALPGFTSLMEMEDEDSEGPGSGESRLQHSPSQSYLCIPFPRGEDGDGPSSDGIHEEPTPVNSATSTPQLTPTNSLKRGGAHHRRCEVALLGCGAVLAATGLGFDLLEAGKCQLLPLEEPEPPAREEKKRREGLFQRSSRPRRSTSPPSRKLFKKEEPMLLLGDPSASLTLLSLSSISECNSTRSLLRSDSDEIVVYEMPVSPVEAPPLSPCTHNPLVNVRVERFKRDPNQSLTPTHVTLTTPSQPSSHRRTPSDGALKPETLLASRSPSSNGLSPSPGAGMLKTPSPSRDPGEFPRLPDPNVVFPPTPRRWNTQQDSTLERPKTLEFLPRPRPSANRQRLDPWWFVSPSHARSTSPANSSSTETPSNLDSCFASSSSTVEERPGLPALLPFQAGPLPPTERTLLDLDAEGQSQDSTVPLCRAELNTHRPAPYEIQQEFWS

inhibition at 1 µM [1]: > 80%
inhibition at 1 µM [2]: > 80%
inhibition at 1 µM [3]: > 80%
SMILES: COc1cc2nc(-c3cc(F)ccc3O)nc(N[C@@H]3CNC[C@H]3C(C)(C)O)c2cc1OC [CCT241533]

From paper PMC4948722 (Cancer research, 2011)
